Experimental data: PubChem BioAssay (NCI)
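The compound was tested at five concentrations on cells cultured in 96-well plates, with a 48-hour exposure period. GI50 is the concentration that inhibits growth by half. At the TGI there is no net growth.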

Experiments:
Assay in all cases: growth of human tumour cells (NCI), 48 h
OVCAR-8 ovarian = tested on: OVCAR-8 ovarian
UO-31 renal = tested on: UO-31 renal
RPMI-8226 leukemia = tested on: RPMI-8226 leukemia
A549 NSCLC = tested on: A549 NSCLC
EKVX NSCLC = tested on: EKVX NSCLC
RXF 393 renal = tested on: RXF 393 renal
T-47D breast = tested on: T-47D breast
A498 renal = tested on: A498 renal
UACC-62 melanoma = tested on: UACC-62 melanoma
SNB-75 CNS = tested on: SNB-75 CNS

Row | SMILES | GI50 (OVCAR-8 ovarian) [µM] | TGI (OVCAR-8 ovarian) [µM] | GI50 (UO-31 renal) [µM] | TGI (UO-31 renal) [µM] | GI50 (RPMI-8226 leukemia) [µM] | TGI (RPMI-8226 leukemia) [µM] | GI50 (A549 NSCLC) [µM] | TGI (A549 NSCLC) [µM] | GI50 (EKVX NSCLC) [µM] | TGI (EKVX NSCLC) [µM] | GI50 (RXF 393 renal) [µM] | TGI (RXF 393 renal) [µM] | GI50 (T-47D breast) [µM] | TGI (T-47D breast) [µM] | GI50 (A498 renal) [µM] | TGI (A498 renal) [µM] | GI50 (UACC-62 melanoma) [µM] | TGI (UACC-62 melanoma) [µM] | GI50 (SNB-75 CNS) [µM] | TGI (SNB-75 CNS) [µM]
1 | N=c1ccc2nc3ccc(N)cc3sc-2c1 | 3.69 | 14 | 26 | > 100 | 2.87 | 26 | 3.43 | > 100 | 6.63 | 81.1 | 12.2 | 28.2 | 4.05 | 18.8 | 26.2 | > 100 | 2.93 | 8.38 | 3.77 | 16.4
2 | Cc1ccc(S(=O)(=O)c2nc(-c3ccccc3)oc2S(C)(=O)=O)cc1 | 1.96 | 3.8 | 1.48 | 2.81 | 2.33 | 5.88 | 14.2 | 27.3 | 6.08 | 19.3 | 1.69 | 3.13 | 1.87 | 3.93 | 15.4 | 28.7 | 1.89 | 3.98 | 6.39 | 18
3 | CC(/C=C/C(O)=C1/C(=O)CNC1=O)=C\[C@@H](C)[C@H]1O[C@@]2(C)O[C@H](C(=O)[C@@H]3O[C@@]32C)[C@@H]1C |  | 46.4 |  | 33.2 |  | 35.9 |  |  |  | 39.2 |  | 25.3 |  | 37.3 |  | 29.1 |  | 33.3 |  | 63.1
4 | CCCc1nc(Cl)nc(Cl)c1Cl |  | 0.637 |  | 0.111 |  |  |  | 6.59 |  | 2.63 |  | 0.798 |  | 4.49 |  | 7.53 |  | 2.07 |  | 6
5 | C/C(=C(/c1ccccc1)c1ccc(OCC(O)CNCCN2CCOCC2)cc1)c1ccccc1 (configuration not stated) | 3.74 | 15.1 | 1.37 | 2.77 |  |  | 3.99 | 15.6 | 7.15 | 20.6 | 1.91 | 4.22 | 3.49 | 11.3 | 1.52 | 10.1 | 1.93 | 3.82 | 2.68 | 15.6
6 | O=C(CC1(O)C(=O)Nc2ccc(F)cc21)c1ccc(C(=O)NCC2CCC3(CC2)OOC2(CCCCC2)OO3)cc1 (configuration not stated) | 6.3 | 35.8 | 0.858 | 2.28 | 2.57 | 8.55 | 2.49 | 5.81 | 1.87 | 3.98 | 6.19 | 21.7 | 5 | 44.2 | 13.3 | 29.4 | 12.2 | 29 |  | 
7 | NC(=O)c1cccnc1 | > 100 | > 100 |  |  | > 100 | > 100 | > 100 | > 100 | > 100 | > 100 | > 100 | > 100 | > 100 | > 100 | > 100 | > 100 | > 100 | > 100 | > 100 | > 100
8 | COc1ccc(C(=O)c2sc3nc(-c4ccccc4OC)ccc3c2N)cc1OC | 4.02 | > 100 | 5.26 | > 100 | 2.7 | > 100 | 5.85 | > 100 |  |  | 3.42 | 70 | 2.95 | > 100 | 3.38 | > 100 | 4.89 | > 100 | 4.34 | 23.4
9 | CC(C)(C)NCC(O)COc1c(Br)c(Br)c(Br)c2c1OC(C)(C)C2 (configuration not stated) |  |  | 1.76 | 3.23 | 1.45 | 3.09 | 2.06 | 3.84 | 1.61 | 3.02 | 2.14 | 3.83 | 1.65 | 3.59 | 1.85 | 3.33 | 1.88 | 3.32 |  | 
10 | CCOC(=O)c1ccc(NC(=O)NC2=NCCS2)cc1 | 1.98 | > 100 | 5.13 | > 100 | 1.93 | > 100 | 0.584 | > 100 |  |  | 0.429 | 3.3 | 4.13 | > 100 | 0.34 | 2.24 | 7.96 | > 100 | 0.252 | > 100
11 | C=C1C(=O)O[C@H]2[C@H]1CC/C(Cn1cc(-c3ccc(N)cc3)nn1)=C\CC[C@@]1(C)O[C@@H]21 | 3.04 | 12.4 | 1.87 | 10.1 | 2.75 | 10.4 | 11.9 | 28.1 | 3.89 | 18.5 | 1.41 | 3.02 | 2.23 | 5.77 | 10.4 | 26.1 |  |  | 4.98 | 22.4
